The melting point is the temperature of the solid-liquid transition. For `CCOc1ccc2[nH]cc(C(=O)NCc3cccs3)c(=O)c2c1` [compound 41, N-[(2-Thienyl)methyl] 6-ethoxy-4-oxo-1,4-dihydro-quinoline-3-carboxamide], the melting point is 223 to 224 °C.
In the case of `CCCNC(=O)c1c[nH]c2ccc(OCC)cc2c1=O` [compound 55, N-Propyl 6-ethoxy-4-oxo-1,4-dihydro-quinoline-3-carboxamide] it was 219 to 221 °C.
Take `Cl.O=C(NCc1cccc(CN2CCOCC2)c1)c1c[nH]c2ccccc2c1=O`: the melting point was in the range of 203 to 208 °C.
As to `O=C(NCC1CCCO1)c1c[nH]c2ccccc2c1=O` (stereo not shown) [compound 1, N-tetrahydrofurfuryl 4-oxo-1,4-dihydro-quinoline-3-carboxamide], the melting point was in the range of 205 to 209 °C.
Compound `COCc1ccc2[nH]cc(C(=O)NCc3cccc(CN4CCOCC4)c3)c(=O)c2c1` [compound 105, N-{3-[(4-Morpholinyl)methyl]benzyl} 6-methoxymethyl-4-oxo-1,4-dihydroquinoline-3-carboxamide] had a melting point of 151 to 153 °C.
Consider `CCCCNC(=O)c1c[nH]c2ccc(OCC)cc2c1=O` [compound 53, N-Butyl 6-ethoxy-4-oxo-1,4-dihydro-quinoline-3-carboxamide], for which the melting point lay in the range of 190 to 191 °C.
Consider `CCOc1ccc2[nH]cc(C(=O)NCc3ccc(CN(CC)Cc4ccccc4)cc3)c(=O)c2c1` [compound 97, N-{4-[(N-Benzyl-N-ethylamino)methyl]benzyl} 6-ethoxy-4-oxo-1,4-dihydroquinoline-3-carboxamide], for which the melting point lay within 129 to 132 °C.
In the case of `CCOc1ccc2[nH]cc(C(=O)NCc3ccc(Cn4ccnc4)cc3)c(=O)c2c1` [compound 66, N-[4-[(1-Imidazolyl)methyl]benzyl} 6-ethoxy-4-oxo-1,4-dihydro-quinoline-3-carboxamide] it was 161 to 165 °C; in that of `CCOc1ccc2[nH]cc(C(=O)NCC3CCCO3)c(=O)c2c1` (stereo not shown) [compound 44, N-[(2-Tetrahydrofuranyl)methyl] 6-ethoxy-4-oxo-1,4-dihydro-quinoline-3-carboxamide], 181 to 182 °C; in that of `Cc1nc(Cc2ccc(CNC(=O)c3c[nH]c4ccc(F)cc4c3=O)cc2)c[nH]1.Cl`, 120 to 122 °C.
In the case of `CCOc1ccc2[nH]cc(C(=O)NCCCOC(C)C)c(=O)c2c1` [compound 43, N-[(3-Isopropoxy)propyl] 6-ethoxy-4-oxo-1,4-dihydro-quinoline-3-carboxamide] it was 163 to 164 °C; in that of `CCOc1ccc2[nH]cc(C(=O)NCc3ccc(CN4CCCCC4)cc3)c(=O)c2c1` [compound 102, N-{4-[(1-Piperidinyl)methyl]benzyl} 6-ethoxy-4-oxo-1,4-dihydroquinoline-3-carboxamide], 172 to 174 °C.
In the case of `Cl.O=C(NCc1ccccc1)c1c[nH]c2c(F)cccc2c1=O` it was 235 to 237 °C.
`CCOc1ccc2[nH]cc(C(=O)NCCCOC)c(=O)c2c1` [compound 48, N-[(3-Methoxy)propyl] 6-ethoxy-4-oxo-1,4-dihydro-quinoline-3-carboxamide] had a melting point of 175 to 177 °C.
To `CCOCCCNC(=O)c1c[nH]c2ccc(COC)cc2c1=O` [compound 33, N-[(3-Ethoxy)propyl] 6-methoxymethyl-4-oxo-1,4-dihydro-quinoline-3-carboxamide] belongs 95 to 97 °C.
Turning to `O=C(NCc1ccco1)c1c[nH]c2ccccc2c1=O` [compound 9, N-[(2-Furanyl)methyl] 4-oxo-1,4-dihydro-quinoline-3-carboxamide], the melting point was in the range of 193 to 195 °C.
To `CN(C)Cc1ccc(CNC(=O)c2c[nH]c3ccc(Cl)cc3c2=O)cc1.Cl` belongs 198 °C (dec.); to `CCOc1ccc2[nH]cc(C(=O)NCc3ccccn3)c(=O)c2c1` [compound 51, N-[(2-Pyridyl)methyl] 6-ethoxy-4-oxo-1,4-dihydro-quinoline-3-carboxamide], 221 to 222 °C.
On to `CCOc1ccc2[nH]cc(C(=O)NCc3ccc(CNCCN4CCOCC4)cc3)c(=O)c2c1` [compound 83, N-{4-[[2-(4-Morpholinyl)ethyl]aminomethyl]benzyl} 6-ethoxy-4-oxo-1,4-dihydro-quinoline-3-carboxamide], for which the melting point was 123 to 127 °C.
`CCOc1ccc2[nH]cc(C(=O)NCC(C)C)c(=O)c2c1` [compound 56, N-[(2-Methyl)propyl] 6-ethoxy-4-oxo-1,4-dihydro-quinoline-3-carboxamide]: the melting point was 214 to 216 °C.
In the case of `CCOc1ccc2[nH]cc(C(=O)NCc3ccc(CN(C)C)cc3)c(=O)c2c1.Cl` it was 222 to 225 °C (dec.).
In the case of `CCOCCCNC(=O)c1c[nH]c2ccccc2c1=O` [compound 17, N-(3-Ethoxypropyl) 4-oxo-1,4-dihydro-quinoline-3-carboxamide] it was 141 to 142 °C.
To `CCOc1ccc(CNC(=O)c2c[nH]c3ccccc3c2=O)cc1` [compound 16, N-(4-Ethoxybenzyl) 4-oxo-1,4-dihydro-quinoline-3-carboxamide] belongs 203 to 205 °C; to `CCOc1ccc2[nH]cc(C(=O)NCc3cccc(F)c3)c(=O)c2c1` [compound 50, N-(3-Fluorobenzyl) 6-ethoxy-4-oxo-1,4-dihydro-quinoline-3-carboxamide], 210 to 212 °C; to `CCOc1ccc2[nH]cc(C(=O)NCc3ccc(CN(C)CCc4ccccc4)cc3)c(=O)c2c1` [compound 99, N-{4-[(N-Methyl-N-phenethylamino)methyl]benzyl} 6-ethoxy-4-oxo-1,4-dihydroquinoline-3-carboxamide], 137 to 139 °C.
`O=C(NCc1cccs1)c1c[nH]c2ccccc2c1=O` [compound 13, N-[(2-Thienyl)methyl] 4-oxo-1,4-dihydro-quinoline-3-carboxamide]: the melting point lay in the range of 235 to 240 °C.
To `O=C(NCc1ccccc1)c1c[nH]c2ccccc2c1=O` [compound 5, N-Benzyl 4-oxo-1,4-dihydro-quinoline-3-carboxamide] belongs 173 °C; to `COCc1ccc2[nH]cc(C(=O)NCc3cccs3)c(=O)c2c1` [compound 32, N-[(2-Thienyl)methyl] 6-methoxymethyl-4-oxo-1,4-dihydro-quinoline-3-carboxamide], 225 to 226 °C.
In the case of `CCCCCCNC(=O)c1c[nH]c2ccc(OCC)cc2c1=O` [compound 57, N-Hexyl 6-ethoxy-4-oxo-1,4-dihydro-quinoline-3-carboxamide] it was 181 to 182 °C.
As to `CCOc1ccc2[nH]cc(C(=O)NCc3ccsc3)c(=O)c2c1` [compound 59, N-[(3-Thienyl)methyl] 6-ethoxy-4-oxo-1,4-dihydro-quinoline-3-carboxamide], the melting point lay in the range of 203 to 205 °C.
In the case of `O=C(NCc1ccc2c(c1)OCO2)c1c[nH]c2ccccc2c1=O` [compound 11, N-Piperonyl 4-oxo-1,4-dihydro-quinoline-3-carboxamide] it was 207 °C; in that of `Cl.O=C(NCc1ccc(CN2CCOCC2)cc1)c1c[nH]c2ccccc2c1=O`, 177 to 180 °C.
In the case of `CCOc1ccc2[nH]cc(C(=O)NCc3ccccc3F)c(=O)c2c1` [compound 49, N-(2-Fluorobenzyl) 6-ethoxy-4-oxo-1,4-dihydro-quinoline-3-carboxamide], the melting point lay within 237 to 238 °C.
In the case of `Cc1ccc2[nH]cc(C(=O)NCc3cccc(CN4CCOCC4)c3)c(=O)c2c1` [compound 127, N-[3-(4-Morpholinylmethyl)benzyl]-6-methyl-4-oxo-1,4-dihydroquinoline-3-carboxamide] it was 140 to 144 °C; in that of `CCOc1ccc2[nH]cc(C(=O)NCc3cccc(CN4CCOCC4)c3)c(=O)c2c1` [compound 117, N-[3-(4-Morpholinylmethyl)benzyl]-6-ethoxy-4-oxo-1,4-dihydroquinoline-3-carboxamide], 173 to 177 °C; in that of `CCCCNC(=O)c1c[nH]c2c(F)cccc2c1=O.Cl`, 205 to 207 °C.
To `O=C(NCc1ccc(F)cc1)c1c[nH]c2ccccc2c1=O` [compound 8, N-(4-Fluorobenzyl) 4-oxo-1,4-dihydro-quinoline-3-carboxamide] belongs 213 to 215 °C; to `CCCCCNC(=O)c1c[nH]c2ccc(OCC)cc2c1=O` [compound 54, N-Pentyl 6-ethoxy-4-oxo-1,4-dihydro-quinoline-3-carboxamide], 180 to 183 °C; to `CCNCc1cccc(CNC(=O)c2c[nH]c3ccc(Cl)cc3c2=O)c1` [compound 28, N-[3-(Ethylaminomethyl)benzyl] 6-chloro-4-oxo-1,4-dihydro-quinoline-3-carboxamide], 148 °C (dec.).
With `CCOc1ccc2[nH]cc(C(=O)NCCC(C)C)c(=O)c2c1` [compound 45, N-Isoamyl 6-ethoxy-4-oxo-1,4-dihydro-quinoline-3-carboxamide], the melting point is 180 to 183 °C.
`CCOc1ccc2[nH]cc(C(=O)NCc3cccnc3)c(=O)c2c1` [compound 52, N-[(3-Pyridyl)methyl] 6-ethoxy-4-oxo-1,4-dihydro-quinoline-3-carboxamide]: the melting point is 222 to 224 °C.
To `CCOc1ccc2[nH]cc(C(=O)NCc3ccc4c(c3)OCO4)c(=O)c2c1` [compound 47, N-Piperonyl 6-ethoxy-4-oxo-1,4-dihydro-quinoline-3-carboxamide] belongs 226 to 228 °C; to `CCOc1ccc2[nH]cc(C(=O)NC)c(=O)c2c1` [compound 58, N-Methyl 6-ethoxy-4-oxo-1,4-dihydro-quinoline-3-carboxamide], 279 to 281 °C; to `CC(C)CCNC(=O)c1c[nH]c2ccccc2c1=O` [compound 4, N-Isoamyl 4-oxo-1,4-dihydro-quinoline-3-carboxamide], 180 to 181 °C.
The compound `CCOc1ccc2[nH]cc(C(=O)NCc3ccccc3)c(=O)c2c1` [compound 39, N-Benzyl 6-ethoxy-4-oxo-1,4-dihydro-quinoline-3-carboxamide] came in with a melting point of 209 to 211 °C.
Consider `CCNCc1ccc(CNC(=O)c2c[nH]c3ccccc3c2=O)cc1.Cl`, for which the melting point is 252 °C (dec.).

Source of the values: patent publication US6413956B1, “Substituted 4-oxo-quinoline-3-carboxamides” (Neurogen Corporation, priority 1999, dated 2002).
